Measurements as given in article PMC12426922, “Fingerprinting the Intestinal Transport of Low-Molecular-Mass Advanced Glycation End-Products (AGEs) Using a Caco‑2 Transwell Model” (Journal of Agricultural and Food Chemistry, 2025).
Where two headings read alike, the source gives them in different places. Marks after values point to notes of the source that are not given here.

How the values were obtained:
Caco-2 cell monolayer = assay: Accumulation of AGEs in the Caco-2 cell monolayer after transport experiment; assay type: in vitro ADME, Human; settings: 2 h; for percentage of the amount added at the apical side at t = 0: accumulation / percentage of the amount added at the apical side at t = 0: accumulation (intracellular): mixture, each AGE 100 μmol/L
Method: After the transport experiment, the cell monolayer on the inset membrane was washed three times with HBSS and three times with PBS. […] The samples were subsequently centrifuged at 16 000g for 20 min at 4 °C, and the supernatant was collected for further analysis by LC-MS.
The analytical column was maintained at 40 °C throughout the quantification process. A multistep binary gradient system of water containing 0.1% (v/v) formic acid (solvent A) and acetonitrile containing 0.1% (v/v) formic acid (solvent B) was used. In the whole gradient program, the total proportion of solvents A and B is always equal to 100%. […] The initial flow rate was set to 0.30 mL/min. Subsequently, it was reduced to 0.25 mL/min at 0.3 min, which was kept until 10 min. Afterward, there was a gradual decrease, reaching 0.15 mL/min at 11 min, and this rate was maintained until 12 min. […] Between 1 and 11 min of gradient running, the line was set to MS, and for the other time periods, the line was set to waste. The retention time and mass spectrometry parameters of individual AGEs are listed in Table S1 and the chromatograms of the samples are shown in Figure S1.

[1] = tested on: differentiated Caco-2 cells; assay: WST-1 cytotoxicity assay, viability of differentiated Caco-2 cells after 2 h exposure; assay type: cell-based, Human; settings: for the mixture: concentration of each AGE
Method: (§1) Human colon carcinoma cells (Caco-2 cells) were obtained from the American Type Culture Collection (ATCC, Rockville, MD, USA). Caco-2 cells were cultured in complete culture medium, composed of DMEM GlutaMAX with 10% FBS (v/v), 1% P/S (v/v), and 1% NEAA (v/v) at 37 °C in a 5% (v/v) CO2 incubator. In this study, Caco-2 cells within passages 10–15 were utilized.
The WST-1 assay was used to quantify the viability of differentiated Caco-2 cells upon exposure to the individual AGEs and their equimolar mixture. To this end, Caco-2 cells were seeded in 96-well plates at 3 × 10^4 cells/well (100 μL) and incubated at 37 °C under 5% (v/v) CO2 for 20 days. The complete culture medium was refreshed on each alternate day. After full differentiation, the culture medium was removed, and the cells were washed with HBSS (containing 1% (v/v) HEPES) twice on the testing day. The same volume (100 μL) of HBSS containing a series of concentrations of the different individual test compounds or of a mixture containing all 10 AGEs was added from a 20-times-concentrated stock solution in HBSS. The test concentrations were designed based on the estimated daily intake of total AGEs (0.55–0.66 mg/(kg·day)) and high-exposure scenarios (1.4–1.8 mg/(kg day)). […] After exposure for 2 h, the absorbance at 440 and 620 nm was measured in a plate spectrophotometer (Molecular Devices, San Jose, CA, USA, Spectra Max M2). After measurement, the cell viability was calculated as cell viability (%)=(Atested 440 nm−Atested 620 nm)/(Acontrol 440 nm−Acontrol 620 nm)×100

Caco-2 cell layer = assay: Transport of AGE mixture across Caco-2 cell layer (transwell, apical to basolateral); assay type: in vitro ADME, Human; settings: mixture, each AGE 100 μmol/L, 2 h; for percentage of the amount added at the apical side at t = 0: apical side (nontransported) / percentage of the amount added at the apical side at t = 0: basolateral side (transported): standard treatment
Method: as §1
(§2) Caco-2 cells were cultured until reaching 50%–60% confluence (undifferentiated Caco-2 cells), followed by trypsinization. Then, cells were seeded at 3 × 10^4 cells per insert in 100 μL of complete culture medium into the transwell inserts of a 24-well transwell plate, and 600 μL of complete culture medium was added to the basolateral compartments. In both the apical and basolateral compartments, the medium was renewed every other day. After 2 weeks, the transepithelial electrical resistance (TEER) value was measured using a Millicell ERS-2 Electrical Resistance System (Burlington, MA, USA) every other day. Only wells with a TEER value of >400 Ω/cm^2 were used for transport experiments. Moreover, the TEER value was measured before and after the transport experiment to ascertain that the Caco-2 cell layer remained intact during the whole transport experiment.
(§3) Transport experiments were performed after 20 days of differentiation of the Caco-2 cells. The culture medium was replaced with HBSS (containing 1% (v/v) HEPES) 30 min prior to testing in both the apical and basolateral compartments. After the 30 min preincubation, 100 μL of HBSS containing a mixture of the 10 different AGEs including CML, CEL, GALA, argpyrimidine, MG-H1, GOLD, GOLA, MOLD, pentosidine, and pyrraline, each at 100 μmol/L, was added to the apical compartment after removing the preincubation medium, while the basolateral medium was replaced by 600 μL of HBSS. […] At 120 min, a 10 μL sample from the apical side was taken for calculating apical side retention (nontransported percentage).
(§4) The apparent permeability coefficient (Papp) value was calculated according to the methodology described by Yee.
(§5) AGEs were quantified by LC-MS using a Shimadzu Nexera XR LC-40D XR UPLC system (Kyoto, Japan) equipped with a UPLC Amide column (100 mm × 2.1 mm, 1.7 μm) without derivatization coupled with a Shimadzu LCMS-8045 triple quadrupole mass spectrometer (Kyoto, Japan). The analytical column was maintained at 40 °C throughout the quantification process. A multistep binary gradient system of water containing 0.1% (v/v) formic acid (solvent A) and acetonitrile containing 0.1% (v/v) formic acid (solvent B) was used. In the whole gradient program, the total proportion of solvents A and B is always equal to 100%. The gradient program was designed as follows: 75% solvent B to 12.5% solvent B from 0 to 10 min, followed by 12.5% solvent B from 10 to 11 min. […] The initial flow rate was set to 0.30 mL/min. Subsequently, it was reduced to 0.25 mL/min at 0.3 min, which was kept until 10 min. Afterward, there was a gradual decrease, reaching 0.15 mL/min at 11 min, and this rate was maintained until 12 min. […] Between 1 and 11 min of gradient running, the line was set to MS, and for the other time periods, the line was set to waste. The retention time and mass spectrometry parameters of individual AGEs are listed in Table S1 and the chromatograms of the samples are shown in Figure S1.

[2] = as above; assay type: in vitro ADME, Human; settings: human; for recovery at 2 h, 100 μmol/L: read-out: percentage of the amount added at the apical side at t = 0: recovery; for Papp at 120 min, 100 μmol/L: data from 120 min
Method: as §1, §2, §3, §4, §5

PepT1 = assay: as above; assay type: in vitro ADME, Human; settings: human, mixture, each AGE 100 μmol/L; for recovery at 2 h, 100 μmol/L: Caco-2, with Gly-Sar 10 mmol/L (apical compartment), Gly-Sar 10 mmol/L, read-out: percentage of the amount added at the apical side at t = 0: recovery; for Papp at 120 min, 100 μmol/L: Caco-2, with Gly-Sar 10 mmol/L (apical), 10 mmol/L Gly-Sar apical (PepT1 inhibition), data from 120 min
Method: as §1, §2, §3, §4, §5

[3] = Caco-2, 4 °C, mixture, each AGE 100 μmol/L
[4] = Caco-2, cytochalasin D pretreatment, mixture, each AGE 100 μmol/L
[5] = Caco-2, standard treatment (37 °C), equimolar mixture of 10 AGEs, each 100 μmol/L apical
[6] = Caco-2, standard treatment, mixture, each AGE 100 μmol/L
[7] = Caco-2, cytochalasin D 1 μg/mL, 30 min apical preincubation, mixture, each AGE 100 μmol/L

| Compound | percentage of the amount added at the apical side at t = 0: accumulation (Caco-2 cell monolayer; 4 °C) | percentage of the amount added at the apical side at t = 0: accumulation (Caco-2 cell monolayer; Gly-Sar 10 mmol/L) | percentage of the amount added at the apical side at t = 0: accumulation (Caco-2 cell monolayer; cytochalasin D pretreatment) | concentration that did not significantly affect cell viability [1] | percentage of the amount added at the apical side at t = 0: apical side (Caco-2 cell layer; 4 °C) | percentage of the amount added at the apical side at t = 0: basolateral side (Caco-2 cell layer; 4 °C) | percentage of the amount added at the apical side at t = 0: apical side (Caco-2 cell layer; Gly-Sar 10 mmol/L) | percentage of the amount added at the apical side at t = 0: basolateral side (Caco-2 cell layer; Gly-Sar 10 mmol/L) | percentage of the amount added at the apical side at t = 0: apical side (Caco-2 cell layer; cytochalasin D pretreatment) | percentage of the amount added at the apical side at t = 0: basolateral side (Caco-2 cell layer; cytochalasin D pretreatment) | percentage of the amount added at the apical side at t = 0: apical side (nontransported) (Caco-2 cell layer) | percentage of the amount added at the apical side at t = 0: basolateral side (transported) (Caco-2 cell layer) | recovery at 2 h, 100 μmol/L [2, 3] | Papp at 120 min, 100 μmol/L [2, 3] | recovery at 2 h, 100 μmol/L [2, 4] | Papp at 120 min, 100 μmol/L [2, 5] | recovery at 2 h, 100 μmol/L [2, 6] | Papp at 120 min, 100 μmol/L [2, 7] | recovery at 2 h, 100 μmol/L (PepT1) | Papp at 120 min, 100 μmol/L (PepT1) | also measured |
| --- | --- | --- | --- | --- | --- | --- | --- | --- | --- | --- | --- | --- | --- | --- | --- | --- | --- | --- | --- | --- | --- |
| CC1NC(NCCC[C@H](N)C(=O)O)=NC1=O (stereo partly drawn) [MG-H1, methylglyoxal–hydroimidazolone] | 0.0 ± 0.0 ^b % | 0.3 ± 0.1 ^b % | 0.3 ± 0.1 ^b % | ≤ 750 µM | 89.7 ± 5.5 ^a % | 0.3 ± 0.1 ^b % | 90.1 ± 5.8 ^a % | 0.4 ± 0.2 ^b % | 93.0 ± 4.5 ^a % | 1.2 ± 0.6 ^a % | 93.4 ± 3.6 ^a % | 0.4 ± 0.2 ^b % | 89.7 ± 5.4% | 0.107 ×10⁻⁶ cm/s | 94.6 ± 4.2% | 0.182 ×10⁻⁶ cm/s | 94.1 ± 3.6% | 0.526 ×10⁻⁶ cm/s | 90.8 ± 5.9% | 0.168 ×10⁻⁶ cm/s | percentage of the amount added at the apical side at t = 0: accumulation (intracellular) (Caco-2 cell monolayer; standard treatment): 0.3 ± 0.1 ^a % |
| Cc1c[n+](CCCC[C@H](N)C(=O)O)cn1CCCC[C@H](N)C(=O)O [MOLD, methylglyoxal–lysine dimer] | 0.0 ± 0.0 ^a % | 0.0 ± 0.1 ^a % | 0.0 ± 0.1 ^a % | ≤ 1500 µM | 83.0 ± 6.5 ^b % | 0.1 ± 0.1 ^b % | 93.5 ± 7.2 ^a % | 0.3 ± 0.2 ^b % | 90.8 ± 12.2 ^ab % | 0.8 ± 0.6 ^a % | 90.6 ± 7.7 ^ab % | 0.2 ± 0.2 ^b % | 83.1 ± 6.5% | 0.057 ×10⁻⁶ cm/s | 91.7 ± 12.6% | 0.098 ×10⁻⁶ cm/s | 90.8 ± 7.9% | 0.34 ×10⁻⁶ cm/s | 93.8 ± 7.2% | 0.11 ×10⁻⁶ cm/s |  |
| CC(NCCCC[C@H](N)C(=O)O)C(=O)O (stereo partly drawn) [CEL, N-ε-(carboxyethyl)-lysine] | 0.0 ± 0.0 ^b % | 1.3 ± 0.2 ^a % | 1.2 ± 0.2 ^a % | ≤ 1500 µM | 88.8 ± 9.1 ^a % | 0.3 ± 0.1 ^a % |  | 0.4 ± 0.1 ^a % | 93.1 ± 4.7 ^a % | 1.2 ± 0.6 ^b % | 95.0 ± 7.00 ^a % | 0.4 ± 0.2 ^a % | 89.1 ± 9.1% | 0.105 ×10⁻⁶ cm/s | 95.5 ± 5.1% | 0.164 ×10⁻⁶ cm/s | 96.5 ± 7.2% | 0.507 ×10⁻⁶ cm/s | 89.5 ± 4.8% | 0.149 ×10⁻⁶ cm/s | intracellular accumulation relative to CML (Caco-2 cell monolayer; standard treatment): about half that observed of CML; percentage of the amount added at the apical side at t = 0: accumulation (intracellular) (Caco-2 cell monolayer; standard treatment): 1.1 ± 0.2 ^a % |
| N[C@@H](CCCC[n+]1cccc2[nH]c(NCCC[C@H](N)C(=O)O)nc21)C(=O)O [pentosidine] | 0.0 ± 0.0 ^a % | 0.0 ± 0.0 ^a % | 0.0 ± 0.0 ^a % | ≤ 500 µM | 83.2 ± 6.7 ^a % | 0.1 ± 0.1 ^b % | 92.8 ± 10.4 ^a % | 0.1 ± 0.1 ^b % | 95.0 ± 14.2 ^a % | 0.7 ± 0.4 ^a % | 89.1 ± 12.2 ^a % |  | 83.3 ± 6.6% | 0.054 ×10⁻⁶ cm/s | 92.6 ± 14.5% | 0.083 ×10⁻⁶ cm/s | 96.9 ± 12.3% | 0.278 ×10⁻⁶ cm/s | 93 ± 10.5% | 0.061 ×10⁻⁶ cm/s |  |
